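Method: 48-hour compound exposure of cells in 96-well plates, five concentrations, linear interpolation of endpoints. At the GI50, growth is halved.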 Activity calls are given as the source filed them. No stated cut-off is given here; in the data, active = GI50 up to about 1.1 µM and inactive = higher. Starred links: 1 amine or outer side, 2 acyl side, 3 side chain; linkers in the order of their positions; H or OH if unused. Positions of bridges follow the written chain, without caps; N, C: chain ends. Where a SMILES comes first, the peptide text is derived from it. Non-standard residues stand in square brackets, D forms with d. Residues, ends and D or L forms follow the SMILES beside them. Bridges are numbered along the chain shown (N, C = ends). Chains are numbered I, II in the order given. The star is where a group is joined. ξ: configuration not given here. X42 = N=C(N)NCCC[C@H](NC(=N)CCCCCCC(=N)N[C@@H](CCCNC(=N)N)C(=O)[*:2])C(=O)[*:1]; Oic(3aξ,7aξ) = O=C(O)[C@@H]1CC2CCCCC2N1; Igl = N[C@H](C(=O)O)C1Cc2ccccc2C1; Hyp = O=C(O)[C@@H]1C[C@@H](O)CN1; Cbz = O=C(OCc1ccccc1)*
What was measured:
Test in all cases: NCI-60 cell line screen, 48 h
DLD-1 = tested on: DLD-1
DMS-114 = tested on: DMS-114
DMS-273 = tested on: DMS-273
LXFL 529 = tested on: LXFL 529
XF498 = tested on: XF498
HOP-18 = tested on: HOP-18
KM-20L2 = tested on: KM-20L2
RXF 631 = tested on: RXF 631
Hs-578T = tested on: Hs-578T

Structure (SMILES): COc1ccc(OC(C)=O)c2c1CCC=CC2=O
- GI50 (DLD-1): > 10 µM (inactive)
- GI50 (DMS-114): 19.1 µM (inactive)
- GI50 (DMS-273): 16.6 µM (inactive)
- GI50 (LXFL 529): 9.57 µM (inactive)
- GI50 (XF498): 17.3 µM (inactive)

Structure (SMILES): COC(=O)Cc1nn2c(nc1=O)sc1ccc3ccccc3c12
- GI50 (DLD-1): > 100 µM (inactive)
- GI50 (HOP-18): > 100 µM (inactive)
- GI50 (KM-20L2): > 100 µM (inactive)
- GI50 (LXFL 529): > 100 µM (inactive)
- GI50 (RXF 631): 91.6 µM (inactive)

Structure (SMILES): COC1(OC)CC2C=C(S(=O)(=O)c3ccccc3)C1N(Cc1ccccc1)C2=O (stereo not given)
- GI50 (DLD-1): 24.3 µM (inactive)
- GI50 (DMS-114): 20.3 µM (inactive)
- GI50 (HOP-18): > 100 µM (inactive)
- GI50 (KM-20L2): 28.9 µM (inactive)
- GI50 (LXFL 529): 20.3 µM (inactive)
- GI50 (RXF 631): 26.3 µM (inactive)
- GI50 (XF498): 19.1 µM (inactive)

Structure (SMILES): NNC(=O)c1cc([N+](=O)[O-])ccc1NC(=O)C12CC3CC(CC(C3)C1)C2
- GI50 (Hs-578T): 5.66 µM (inactive)

Structure (SMILES): Cc1cc(C)c(C2CC(O)C(CO)O2)cc1C (stereo not given)
- GI50 (Hs-578T): > 100 µM (inactive)

Structure (SMILES): CO[C@@]12C[C@@H](CNC(=O)c3cc(Br)c[nH]3)O[C@@H]1NC(=O)N2
- GI50 (Hs-578T): > 100 µM (inactive)

Structure (SMILES): S=C(Nc1ccccc1)c1ccc(CN2CCCCC2)s1
- GI50 (Hs-578T): 25.3 µM (inactive)

Structure (SMILES): COc1cc(-c2oc(/C=N/c3ccccc3)c([N+](=O)[O-])c2-c2ccc(O)c(OC)c2)ccc1O
- GI50 (Hs-578T): 39.6 µM (inactive)

Structure (SMILES): CCCCCCCCC[C@@H]1C[C@@H]2CCC3C(C(=O)OC)=C(C)N=C(N1)N32 (stereo not given in full)
- GI50 (Hs-578T): 4.66 µM (inactive)

Structure (SMILES): CCCSc1ccc2[nH]c(N3C(=O)/C(=C/c4ccccc4)N=C3c3ccccc3)cc2c1
- GI50 (Hs-578T): 20.3 µM (inactive)

Structure (SMILES): CC(C)=CC1C(COC(=O)c2cc3c(cc2Cl)OCO3)C1(C)C (stereo not given)
- GI50 (Hs-578T): 13.1 µM (inactive)

Structure (SMILES): O=C1C=CC2(C=C1)C[C@H](NC(=O)C(F)(F)F)C(=O)O2
- GI50 (DLD-1): 22.9 µM (inactive)
- GI50 (DMS-114): 64.6 µM (inactive)
- GI50 (KM-20L2): > 100 µM (inactive)
- GI50 (LXFL 529): 23.7 µM (inactive)

Structure (SMILES): CCC(=O)C(CCN1CCC(N2C(=O)C(CCC#N)c3ccccc32)CC1)(c1ccccc1)c1ccccc1 (stereo not given)
- GI50 (Hs-578T): 9.57 µM (inactive)

Structure (SMILES): CCOc1ccccc1NC(=O)/C=C1\NC(=O)CS1
- GI50 (DLD-1): > 100 µM (inactive)
- GI50 (DMS-114): > 100 µM (inactive)
- GI50 (DMS-273): > 100 µM (inactive)
- GI50 (HOP-18): 98.2 µM (inactive)
- GI50 (KM-20L2): > 100 µM (inactive)
- GI50 (LXFL 529): > 100 µM (inactive)
- GI50 (XF498): > 100 µM (inactive)

Structure (SMILES): COc1cc(Cl)c2c3c(c(C(C)=O)oc13)CCC2
- GI50 (DLD-1): > 100 µM (inactive)
- GI50 (DMS-114): > 100 µM (inactive)
- GI50 (DMS-273): > 100 µM (inactive)
- GI50 (HOP-18): > 100 µM (inactive)
- GI50 (KM-20L2): > 100 µM (inactive)
- GI50 (LXFL 529): > 100 µM (inactive)
- GI50 (RXF 631): > 100 µM (inactive)

Structure (SMILES): c1ccc(-c2nc3ccccc3n3c(CN4CCCCC4)nnc23)cc1
- GI50 (Hs-578T): 69.2 µM (inactive)

Structure (SMILES): O=C(O)C1C(=O)Oc2c(cccc2[N+](=O)[O-])C1O (stereo not given)
- GI50 (Hs-578T): > 100 µM (inactive)

Structure (SMILES): Cc1ccccc1NC(=O)/C(C#N)=N\Nc1[nH]cnc1C(N)=O
- GI50 (Hs-578T): 24.3 µM (inactive)

Structure (SMILES): Cc1ccc(C)c(COCCOCn2cc(Br)c(N)nc2=O)c1
- GI50 (Hs-578T): > 100 µM (inactive)

Structure (SMILES): CCCc1c2c([nH]c(=O)c1C)C(=O)c1[nH]c(=O)c(C)c(CCC)c1C2=O
- GI50 (DMS-114): 2.51 µM (inactive)
- GI50 (HOP-18): > 100 µM (inactive)
- GI50 (LXFL 529): 63.2 µM (inactive)

Structure (SMILES): O=C(CSc1nc(=O)c(-c2ccccc2NC(=O)C(F)(F)F)n[nH]1)NC(=O)Nc1ccccc1
- GI50 (DLD-1): 18.9 µM (inactive)
- GI50 (DMS-273): 90.8 µM (inactive)
- GI50 (LXFL 529): 79.6 µM (inactive)
- GI50 (XF498): > 100 µM (inactive)

Structure (SMILES): N#CC1CNC(N)NC1N (stereo not given)
- GI50 (Hs-578T): > 100 µM (inactive)

Structure (SMILES): C[P+](c1ccccc1)(c1ccc(Cl)cc1)c1ccc(Cl)cc1
- GI50 (Hs-578T): 20.7 µM (inactive)

Structure (SMILES): S=C(NN=C1NCCCCN1)Nc1ccc(Cl)cc1
- GI50 (Hs-578T): 60 µM (inactive)

Structure (SMILES): O=C(C/C(=N/O)C(F)(F)F)c1cccs1
- GI50 (Hs-578T): > 100 µM (inactive)

Structure (SMILES): COc1ccc(/N=C2/C(=N/c3ccc(OC)cc3)N(c3ccccc3)C(=S)N2N=C=C2Sc3ccccc3N2C)cc1
- GI50 (Hs-578T): > 100 µM (inactive)

Structure (SMILES): O=C(Cc1nc2ccccc2o1)C(=O)Nc1cccc(C(F)(F)F)c1
- GI50 (DLD-1): > 100 µM (inactive)
- GI50 (DMS-114): > 100 µM (inactive)
- GI50 (DMS-273): > 100 µM (inactive)
- GI50 (HOP-18): 45 µM (inactive)
- GI50 (KM-20L2): > 100 µM (inactive)
- GI50 (LXFL 529): > 100 µM (inactive)
- GI50 (RXF 631): > 100 µM (inactive)

Structure (SMILES): CC(O)C1(CNc2cc(Cl)nc(N)n2)CC(CCc2ccccc2)C1 (stereo not given)
- GI50 (Hs-578T): 17.3 µM (inactive)

Structure (SMILES): CC(Br)C(=O)Nc1ccc(C(=O)O)c(O)c1 (stereo not given)
- GI50 (Hs-578T): 33.4 µM (inactive)

Structure (SMILES): O=[N+]([O-])/C=C/c1ccc2ccccc2c1
- GI50 (Hs-578T): 4.44 µM (inactive)

Structure (SMILES): CC(=O)OC[C@H]1O[C@@H](O[C@H]2[C@H](OC(C)=O)C=CO[C@@H]2COC(C)=O)C(OC(C)=O)[C@H]2OC(C)(C)O[C@H]21 (stereo not given in full)
- GI50 (Hs-578T): 32.1 µM (inactive)

Structure (SMILES): COc1cc(-c2cc(=O)c3c(O)c(OC)c(OC)c(OC)c3o2)ccc1O
- GI50 (DLD-1): 23.9 µM (inactive)
- GI50 (DMS-114): 23.9 µM (inactive)
- GI50 (DMS-273): 5.08 µM (inactive)
- GI50 (HOP-18): 32.4 µM (inactive)
- GI50 (KM-20L2): 40.2 µM (inactive)
- GI50 (LXFL 529): 16.6 µM (inactive)

Structure (SMILES): COC(=O)C1CCCCNC(=O)CCC(NC(=O)OCc2ccccc2)C(=O)N1 (stereo not drawn) (Cbz-Glu-Lys-OMe; lactam 1-2; configuration not given here)
- GI50 (Hs-578T): 65.9 µM (inactive)

Structure (SMILES): N=C(N)NCCC[C@H](NC(=O)[C@@H]1CC2CCCCC2N1C(=O)[C@@H](NC(=O)[C@H](CO)NC(=O)[C@@H](NC(=O)CNC(=O)[C@@H]1CCCN1C(=O)[C@H](CCCNC(=N)N)NC(=O)[C@H](CCCNC(=N)N)NC(=N)CCCCCCC(=N)N[C@@H](CCCNC(=N)N)C(=O)N[C@@H](CCCNC(=N)N)C(=O)N1CCC[C@H]1C(=O)N1C[C@H](O)C[C@H]1C(=O)NCC(=O)N[C@H](C(=O)N[C@@H](CO)C(=O)N[C@H](C(=O)N1C2CCCCC2C[C@H]1C(=O)N[C@@H](CCCNC(=N)N)C(=O)O)C1Cc2ccccc2C1)C1Cc2ccccc2C1)C1Cc2ccccc2C1)C1Cc2ccccc2C1)C(=O)O (stereo not given in full) (I: RP[Hyp]G[Igl]S[Igl][Oic(3aξ,7aξ)]R-OH / II: RPG[Igl]S[Igl][Oic(3aξ,7aξ)]R-OH; linker I:N-II:N via X42)
- GI50 (Hs-578T): 2.91 µM (inactive)

Structure (SMILES): CCOS(C)(=O)=O [METHANESULFONIC ACID ETHYL ESTER]
- GI50 (Hs-578T): > 100 µM (inactive)

From ChEMBL document CHEMBL1201862, “PubChem BioAssay data set” (2004)
